Assay results: ChEMBL document CHEMBL4308876, “Isolation and structure determination of a new lasso peptide specialicin based on genome mining” (Bioorg Med Chem, 2018)
Values after ≈ are worked out from the molar mass of the structure shown. Bridge positions count the residues as written; N and C are the ends. Peptide text beside a SMILES is read from it.

Assays:
Micrococcus luteus = assay: Antibacterial activity against Micrococcus luteus after 24 hrs; assay type: functional
Pseudomonas aeruginosa = assay: Antibacterial activity against Pseudomonas aeruginosa after 24 hrs; assay type: functional
Escherichia coli = assay: Antibacterial activity against Escherichia coli after 24 hrs; assay type: functional
Staphylococcus aureus = assay: Antibacterial activity against Staphylococcus aureus after 24 hrs; assay type: functional
Bacillus subtilis = assay: Antibacterial activity against Bacillus subtilis after 24 hrs; assay type: functional
[1] = tested on: Human immunodeficiency virus 1; assay: Antiviral activity against HIV-1 NL4-3 infected in human PM1/CCR5 cells after 7 days by WST-8 assay; assay type: functional, organism-based; conditions: Human immunodeficiency virus 1, NL4-3, PM1/CCR5, 168 h

CC(C)C[C@@H]1NC(=O)[C@@H]2CSSC[C@@H]3NC(=O)CNC(=O)[C@H](C)NC(=O)[C@H](Cc4ccccc4)NC(=O)[C@H](CC(=O)N2)NC(=O)[C@H](C(C)C)NC(=O)[C@H](CSSC[C@@H](C(=O)N[C@@H](Cc2ccccc2)C(=O)N[C@@H](Cc2c[nH]c4ccccc24)C(=O)O)NC(=O)[C@H](C(C)C)NC(=O)[C@H](C(C)C)NC(=O)[C@H](C)NC(=O)[C@H](Cc2ccc(O)cc2)NC(=O)CNC3=O)NC(=O)[C@H](CO)NC(=O)CNC(=O)[C@H](C(C)C)NC(=O)CNC1=O (CLGVGSCVDFAGCGYAVVCFW-OH; disulfide 1-13, 7-19; lactam N-9)
MIC (Micrococcus luteus): 8 µg/mL (≈ 3.75 µM) | MIC (Pseudomonas aeruginosa): > 32 µg/mL | MIC (Escherichia coli): > 32 µg/mL | MIC (Staphylococcus aureus): > 32 µg/mL | MIC (Bacillus subtilis): > 32 µg/mL | IC50 [1]: 7.2 µM

CN(C)[C@@H]1C(O)=C(C(N)=O)C(=O)[C@@]2(O)C(O)=C3C(=O)c4c(O)cccc4[C@@](C)(O)[C@H]3C[C@@H]12 [TETRACYCLINE]
MIC (Micrococcus luteus): 0.25 µg/mL (≈ 0.563 µM) | MIC (Pseudomonas aeruginosa): 4 µg/mL (≈ 9 µM) | MIC (Escherichia coli): 2 µg/mL (≈ 4.5 µM) | MIC (Staphylococcus aureus): 0.125 µg/mL (≈ 0.281 µM) | MIC (Bacillus subtilis): 1 µg/mL (≈ 2.25 µM)
